Patent US20240199649A1 (Biosplice Therapeutics, Inc., priority 2022, published 2024)

biological target: recombinant DYRK1A kinase (Homo sapiens (Human), UniProt Q13627); test: DYRK1A kinase assay (Ser/Thr 18 peptide Z-lyte FRET assay); format: biochemical; conditions: DYRK1A 0.25 μg/mL, ATP 15 μM, Ser/Thr peptide 18 4 μM; one hour at room temperature; 11-point dose-response, duplicate
Method: Representative compounds were screened using the assay procedure for DYRK1A kinase activity as described below.
Each compound was dissolved in DMSO as a 10 mM stock and used to prepare compound source plates.
This is a non-radioactive assay using fluorescence resonance energy transfer (FRET) between coumarin and fluorescein to detect kinase activity which is represented as a ratio of coumarin emission/fluorescein emission.
The mixture was allowed to incubate with the representative compounds for one hour at room temperature. All reactions were performed in duplicate. Unphosphorylated (“0% Control”) and phosphorylated (“100% control”) forms of Ser/Thr 18 served as control reactions. Additionally, an 11-point dose-response curve of Staurosporine (1 uM top) was run to serve as a positive compound control.
After incubation, Development Reagent A was diluted in Development Buffer then added to the reaction and allowed to further incubate for one hour at room temperature.
Dose-response curves were generated, and inhibitory concentration (IC50) values were calculated using non-linear regression curve fit in the Dotmatics' Studies Software (Bishops Stortford, UK).

Going from `C[C@]1(O)CC[C@H](Nc2nc(N)c3c(-c4ccn5nccc5c4)ccn3n2)CC1` [Compound 1, trans-4-((4-Amino-5-(pyrazolo[1,5-a]pyridin-5-yl)pyrrolo[2,1-f][1,2,4]triazin-2-yl)amino)-1-methylcyclohexan-1-ol] to `CNc1nc(N[C@H]2CC[C@](C)(O)CC2)nn2ccc(-c3ccn4nccc4n3)c12` [Compound 20, trans-1-Methyl-4-((4-(methylamino)-5-(pyrazolo[1,5-a]pyrimidin-5-yl)pyrrolo[2,1-f][1,2,4]triazin-2-yl)amino)cyclohexan-1-ol], the IC50 falls from 172 nM to 2.5 nM (69-fold).

First: CNc1nc(N[C@@H]2CCN(C)CC2(F)F)nn2ccc(-c3ccn4nccc4n3)c12 [Compound 44, (R)—N^2-(3,3-Difluoro-1-methylpiperidin-4-yl)-N^4-methyl-5-(pyrazolo[1,5-a]pyrimidin-5-yl)pyrrolo[2,1-f][1,2,4]triazine-2,4-diamine]
Second: CNc1nc(NC2CCC(F)(F)CC2)nn2ccc(-c3ccc4nc(C)n(CC(F)F)c4n3)c12 [Compound 182, N^2-(4,4-Difluorocyclohexyl)-5-(3-(2,2-difluoroethyl)-2-methyl-3H-imidazo[4,5-b]pyridin-5-yl)-N^4-methylpyrrolo[2,1-f][1,2,4]triazine-2,4-diamine]
The IC50 of the first is 2.1-fold lower: 5.8 nM for the first, 12 nM for the second.

First: CNc1nc(N[C@H]2CC[C@](C)(O)CC2)nn2ccc(-c3ccc4nccn4c3)c12 [Compound 58, trans-4-((5-(Imidazo[1,2-a]pyridin-6-yl)-4-(methylamino)pyrrolo[2,1-f][1,2,4]triazin-2-yl)amino)-1-methylcyclohexan-1-ol]
Second: CNc1nc(N[C@H]2CC[C@](C)(O)CC2)nn2ccc(-c3ccc4nc(C)n(C(C)C)c4n3)c12 [Compound 132, trans-4-((5-(3-Isopropyl-2-methyl-3H-imidazo[4,5-b]pyridin-5-yl)-4-(methylamino)pyrrolo[2,1-f][1,2,4]triazin-2-yl)amino)-1-methylcyclohexan-1-ol]
The IC50 of the first is 100-fold higher: 170 nM for the first, 1.7 nM for the second. The second is the more potent here.

Going from `CNc1nc(NC2CCN(C3COC3)CC2)nn2ccc(-c3cnc4nc(C)n(C(C)C)c4c3)c12` [Compound 114] to `CNc1nc(NC2CCN(C3COC3)CC2)nn2ccc(-c3ccc4nc(C)n(CC(F)F)c4n3)c12` [Compound 203, 5-(3-(2,2-Difluoroethyl)-2-methyl-3H-imidazo[4,5-b]pyridin-5-yl)-N^4-methyl-N^2-(1-(oxetan-3-yl)piperidin-4-yl)pyrrolo[2,1-f][1,2,4]triazine-2,4-diamine], the IC50 falls from 744 nM to 2 nM (370-fold).

Going from `CNc1nc(N[C@H]2C[C@](C)(O)C2)nn2ccc(-c3cnc4nc(C)n(CC(F)F)c4c3)c12` [Compound 170, trans-3-((5-(1-(2,2-Difluoroethyl)-2-methyl-1H-imidazo[4,5-b]pyridin-6-yl)-4-(methylamino)pyrrolo[2,1-f][1,2,4]triazin-2-yl)amino)-1-methylcyclobutan-1-ol] to `CNc1nc(N[C@H]2CC[C@](C)(O)CC2)nn2ccc(-c3cnc4nc(C)n(CC(F)F)c4c3)c12` [Compound 171, trans-4-((5-(1-(2,2-Difluoroethyl)-2-methyl-1H-imidazo[4,5-b]pyridin-6-yl)-4-(methylamino)pyrrolo[2,1-f][1,2,4]triazin-2-yl)amino)-1-methylcyclohexan-1-ol], the IC50 rises from 4.8 nM to 8 nM (1.7-fold).

Compared with `CNc1nc(N[C@H]2C[C@@H](OCCO)C2)nn2ccc(-c3ccc4nc(C)n(CC(F)F)c4n3)c12` [Compound 172, 2-(cis-3-((5-(3-(2,2-Difluoroethyl)-2-methyl-3H-imidazo[4,5-b]pyridin-5-yl)-4-(methylamino)pyrrolo[2,1-f][1,2,4]triazin-2-yl)amino)cyclobutoxy)ethan-1-ol], `CNc1nc(N[C@H]2CC[C@@H](OCCO)CC2)nn2ccc(-c3ccc4nc(C)n(CC(F)F)c4n3)c12` [Compound 184, 2-((cis-4-((5-(3-(2,2-Difluoroethyl)-2-methyl-3H-imidazo[4,5-b]pyridin-5-yl)-4-(methylamino)pyrrolo[2,1-f][1,2,4]triazin-2-yl)amino)cyclohexyl)oxy)ethan-1-ol] is 1.8-fold lower in IC50: 0.9 nM for the first, 0.5 nM for the second. The second is the more potent here.

`CNc1nc(N[C@H]2C[C@@](C)(O)C2)nn2ccc(-c3ccc4nc(C)n(CC(F)F)c4n3)c12` [Compound 174, Cis-3-((5-(3-(2,2-Difluoroethyl)-2-methyl-3H-imidazo[4,5-b]pyridin-5-yl)-4-(methylamino)pyrrolo[2,1-f][1,2,4]triazin-2-yl)amino)-1-methylcyclobutan-1-ol] and `CNc1nc(N[C@H]2CC[C@@](C)(O)CC2)nn2ccc(-c3ccc4nc(C)n(CC(F)F)c4n3)c12` [Compound 188, Cis-4-((5-(3-(2,2-Difluoroethyl)-2-methyl-3H-imidazo[4,5-b]pyridin-5-yl)-4-(methylamino)pyrrolo[2,1-f][1,2,4]triazin-2-yl)amino)-1-methylcyclohexan-1-ol] are within 1.5-fold of each other in IC50: 1.7 nM for the first, 2.2 nM for the second.

First: CNc1nc(N[C@H]2CC[C@@H](OC)CC2)nn2ccc(-c3ccc4nc(C)n(CC(F)F)c4n3)c12 [Compound 183, 5-(3-(2,2-Difluoroethyl)-2-methyl-3H-imidazo[4,5-b]pyridin-5-yl)-N^2-(cis-4-methoxycyclohexyl)-N^4-methylpyrrolo[2,1-f][1,2,4]triazine-2,4-diamine]
Second: CNc1nc(N[C@H]2CC[C@@H](OCCOC)CC2)nn2ccc(-c3ccc4nc(C)n(CC(F)F)c4n3)c12 [Compound 185, 5-(3-(2,2-Difluoroethyl)-2-methyl-3H-imidazo[4,5-b]pyridin-5-yl)-N^2-(cis-4-(2-methoxyethoxy)cyclohexyl)-N^4-methylpyrrolo[2,1-f][1,2,4]triazine-2,4-diamine]
The IC50 of the first is 1.7-fold higher: 4.1 nM for the first, 2.4 nM for the second.

`CNc1nc(N[C@H]2CC[C@@H](NC(C)=O)CC2)nn2ccc(-c3ccc4nc(C)n(CC(F)F)c4n3)c12` [Compound 186, N-(cis-4-((5-(3-(2,2-difluoroethyl)-2-methyl-3H-imidazo[4,5-b]pyridin-5-yl)-4-(methylamino)pyrrolo[2,1-f][1,2,4]triazin-2-yl)amino)cyclohexyl)acetamide] and `CNc1nc(N[C@H]2CC[C@H](NC(C)=O)CC2)nn2ccc(-c3ccc4nc(C)n(CC(F)F)c4n3)c12` [Compound 187, N-(trans-4-((5-(3-(2,2-Difluoroethyl)-2-methyl-3H-imidazo[4,5-b]pyridin-5-yl)-4-(methylamino)pyrrolo[2,1-f][1,2,4]triazin-2-yl)amino)cyclohexyl)acetamide] are within 1.5-fold of each other in IC50: 1.5 nM for the first, 1.1 nM for the second.

`CNc1nc(N[C@H]2CC[C@](C)(O)CC2)nn2ccc(-c3ccc4nc(C)n(CC(F)F)c4n3)c12` [Compound 189, trans-4-((5-(3-(2,2-Difluoroethyl)-2-methyl-3H-imidazo[4,5-b]pyridin-5-yl)-4-(methylamino)pyrrolo[2,1-f][1,2,4]triazin-2-yl)amino)-1-methylcyclohexan-1-ol] and `CNc1nc(NC2CCN(C(C)=O)CC2)nn2ccc(-c3ccc4nc(C)n(CC(F)F)c4n3)c12` [Compound 202, 1-(4-((5-(3-(2,2-Difluoroethyl)-2-methyl-3H-imidazo[4,5-b]pyridin-5-yl)-4-(methylamino)pyrrolo[2,1-f][1,2,4]triazin-2-yl)amino)piperidin-1-yl)ethan-1-one] are within 1.5-fold of each other in IC50: 1.3 nM for the first, 1.8 nM for the second.

First: CNc1nc(NC23CC4CC(CC(C4)C2)C3)nn2ccc(-c3ccc4nc(C)n(CC(F)F)c4n3)c12 [Compound 196, N^2-(Adamantan-1-yl)-5-(3-(2,2-difluoroethyl)-2-methyl-3H-imidazo[4,5-b]pyridin-5-yl)-N^4-methylpyrrolo[2,1-f][1,2,4]triazine-2,4-diamine]
Second: CNc1nc(N[C@H]2CN(C)C[C@H]2F)nn2ccc(-c3ccc4nc(C)n(CC(F)F)c4n3)c12 [Compound 197, 5-(3-(2,2-Difluoroethyl)-2-methyl-3H-imidazo[4,5-b]pyridin-5-yl)-N^2-((3S,4R)-4-fluoro-1-methylpyrrolidin-3-yl)-N^4-methylpyrrolo[2,1-f][1,2,4]triazine-2,4-diamine]
The IC50 of the first is 300-fold higher: 595 nM for the first, 2 nM for the second.

Compared with `CNc1nc(N[C@@H]2CN(C)C[C@@H]2F)nn2ccc(-c3ccc4nc(C)n(CC(F)F)c4n3)c12` [Compound 198, 5-(3-(2,2-Difluoroethyl)-2-methyl-3H-imidazo[4,5-b]pyridin-5-yl)-N^2-((3R,4S)-4-fluoro-1-methylpyrrolidin-3-yl)-N^4-methylpyrrolo[2,1-f][1,2,4]triazine-2,4-diamine], `CNc1nc(N[C@H]2CN(C3COC3)C[C@H]2F)nn2ccc(-c3ccc4nc(C)n(CC(F)F)c4n3)c12` [Compound 199, 5-(3-(2,2-Difluoroethyl)-2-methyl-3H-imidazo[4,5-b]pyridin-5-yl)-N^2-((3S,4R)-4-fluoro-1-(oxetan-3-yl)pyrrolidin-3-yl)-N^4-methylpyrrolo[2,1-f][1,2,4]triazine-2,4-diamine] is 4-fold higher in IC50: 0.6 nM for the first, 2.4 nM for the second.

Compared with `CNc1nc(N[C@@H]2CN(C3COC3)C[C@@H]2F)nn2ccc(-c3ccc4nc(C)n(CC(F)F)c4n3)c12` [Compound 200, 5-(3-(2,2-Difluoroethyl)-2-methyl-3H-imidazo[4,5-b]pyridin-5-yl)-N^2-((3R,4S)-4-fluoro-1-(oxetan-3-yl)pyrrolidin-3-yl)-N^4-methylpyrrolo[2,1-f][1,2,4]triazine-2,4-diamine], `CNc1nc(NC2CCN(CC(F)F)CC2)nn2ccc(-c3ccc4nc(C)n(CC(F)F)c4n3)c12` [Compound 201, 5-(3-(2,2-Difluoroethyl)-2-methyl-3H-imidazo[4,5-b]pyridin-5-yl)-N^2-(1-(2,2-difluoroethyl)piperidin-4-yl)-N^4-methylpyrrolo[2,1-f][1,2,4]triazine-2,4-diamine] is 1.9-fold lower in IC50: 1.3 nM for the first, 0.7 nM for the second.
